Experimental data published in publication PMC9948186 (ACS Omega, 2023).

Target: T1, Microtubule affinity regulatory kinase 4 (MARK4) (Homo sapiens, UniProt Q96L34)
T1 sequence (Q96L34 1-752): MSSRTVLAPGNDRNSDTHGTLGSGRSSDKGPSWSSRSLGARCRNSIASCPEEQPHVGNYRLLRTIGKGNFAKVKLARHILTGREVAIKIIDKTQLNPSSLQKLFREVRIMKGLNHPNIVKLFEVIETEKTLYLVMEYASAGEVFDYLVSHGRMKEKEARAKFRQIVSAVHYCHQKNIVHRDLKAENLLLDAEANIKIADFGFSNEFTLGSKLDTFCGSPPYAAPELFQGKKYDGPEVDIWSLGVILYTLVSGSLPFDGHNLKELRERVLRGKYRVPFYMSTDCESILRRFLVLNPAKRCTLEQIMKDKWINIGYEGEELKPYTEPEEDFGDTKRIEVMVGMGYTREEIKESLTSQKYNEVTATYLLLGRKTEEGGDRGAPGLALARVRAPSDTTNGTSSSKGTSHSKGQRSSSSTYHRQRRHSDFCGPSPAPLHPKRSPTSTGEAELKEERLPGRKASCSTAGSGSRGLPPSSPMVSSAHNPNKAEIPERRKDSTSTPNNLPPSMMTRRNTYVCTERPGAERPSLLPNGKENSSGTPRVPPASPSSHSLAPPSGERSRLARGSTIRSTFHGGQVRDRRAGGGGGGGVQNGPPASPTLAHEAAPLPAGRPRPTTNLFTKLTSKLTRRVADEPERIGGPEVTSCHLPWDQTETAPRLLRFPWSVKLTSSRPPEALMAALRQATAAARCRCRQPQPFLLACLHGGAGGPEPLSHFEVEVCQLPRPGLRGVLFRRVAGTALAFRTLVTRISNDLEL
Assay: malachite green ATPase
Type: biochemical

SMILES	IC50 [µM]
OC[C@H]1O[C@@H](c2ccc(Cl)c(Cc3ccc(O[C@H]4CCOC4)cc3)c2)[C@H](O)[C@@H](O)[C@@H]1O [empagliflozin]	7.1
CC#CCn1c(N2CCC[C@@H](N)C2)nc2c1c(=O)n(Cc1nc(C)c3ccccc3n1)c(=O)n2C [linagliptin]	7.63
